Data published in publication PMC12093506, “Synthesis, characterization, and in vitro and in silico α-glucosidase inhibitory evolution of novel N′-(2-cyclopentyl-2-phenylacetyl)cinnamohydrazide derivatives” (RSC Advances, 2025).
Where two headings read alike, the source gives them in different places.

Tests used:
[1] = molecular target: T1, α-glucosidase (maltase) enzyme from Yeast (Saccharomyces cerevisiae, UniProt P53341); assay: biochemical; format: biochemical
T1 construct: purchased Sisco Research Laboratories Pvt; Ltd
T1 sequence (P53341 whole entry): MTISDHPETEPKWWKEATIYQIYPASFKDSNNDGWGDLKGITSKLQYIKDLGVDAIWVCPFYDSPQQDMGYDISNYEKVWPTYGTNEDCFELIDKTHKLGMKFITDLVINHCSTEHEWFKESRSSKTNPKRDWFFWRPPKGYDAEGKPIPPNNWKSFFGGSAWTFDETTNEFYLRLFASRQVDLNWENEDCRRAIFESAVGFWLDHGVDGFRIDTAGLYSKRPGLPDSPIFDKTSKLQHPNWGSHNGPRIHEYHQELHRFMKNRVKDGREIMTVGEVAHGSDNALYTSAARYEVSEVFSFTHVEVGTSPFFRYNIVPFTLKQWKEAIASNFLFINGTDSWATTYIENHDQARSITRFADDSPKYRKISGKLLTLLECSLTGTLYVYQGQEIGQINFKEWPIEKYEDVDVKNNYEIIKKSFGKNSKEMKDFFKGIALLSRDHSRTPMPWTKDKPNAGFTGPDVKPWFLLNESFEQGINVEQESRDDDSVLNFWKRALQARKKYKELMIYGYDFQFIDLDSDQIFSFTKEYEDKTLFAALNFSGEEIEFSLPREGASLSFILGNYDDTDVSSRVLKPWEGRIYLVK
Experimental: The test compounds were evaluated for their α-glucosidase inhibitory activity following the methodology outlined by Pistia et al.[62] and Bhatia et al.[63] […] The compounds at varied concentrations ranging from 50 to 200 μg mL^−1 were combined with 50 μL of α-glucosidase (maltase) enzyme solution (1 U mL^−1) from Yeast (Sisco Research Laboratories Pvt. Ltd). The mixer was placed at a temperature of 37 °C for duration of 15 minutes, after the addition of 0.1 M phosphate buffer (pH 6.8). Afterward, 25 μl of substrate buffer was introduced into the system to initiate the reaction, and the incubation was prolonged at a temperature of 37 °C for a length of 15 minutes. Finally, the reaction was stopped by adding 50 μl of a 0.2 M sodium carbonate solution, thereby terminating the processes. The measurement was determined at a wavelength of 450 nm. […] The measurement of enzyme activity was carried out as follows.
The formula for calculating the percentage is (ODblank − ODsample) divided by ODblank, multiplied by 100.
A unit of enzyme may be accurately defined as the amount of α-glucosidase enzyme required to generate one micromole of p-nitrophenol (product) from p-nitrophenyl-α-D-glucopyranoside (substrate) for a time of one minute. The IC50, representing the concentration required to inhibit 50% of the enzyme activity, was determined by fitting a regression equation to a graph that plotted concentration (varying from 50–200 μg mL^−1) on the X-axis and percentage of inhibition on the Y-axis for various fractions and extracts.

α-glucosidase = details: cited from earlier work
[2] = yeast α-glucosidase (maltase) 1 U mL^−1, phosphate buffer pH 6.8, 37 °C, read-out: IC50 (α-glucosidase inhibition)
[3] = compounds with phenyl rings, Fig. 1
[4] = hydrazine-type compounds, Fig. 1
[5] = yeast α-glucosidase (maltase) 1 U mL^−1, phosphate buffer pH 6.8, 37 °C

O=C(C=Cc1ccc(Br)cc1)NNC(=O)C(c1cc(F)c(F)cc1F)C1CCCC1 (centres unmarked) [Compound 7c, 3-(4-Bromophenyl)-N′-(2-cyclopentyl-2-(2,4,5-trifluorophenyl)acetyl)acrylohydrazide] gave an IC50 [1, 2] of 49.3 nM.

For C=CCc1ccc(OC(=O)/C=C/c2ccc(O)cc2)c(-c2cc(CC=C)ccc2OC(=O)/C=C/c2ccc(O)cc2)c1 [I], the Ki (α-glucosidase; Fig. 1) is given as 2480 nM and the IC50 (α-glucosidase; cinnamic acid magnolol derivative) is given as 5110 nM.

In the case of O=[N+]([O-])c1ccc2cc(-c3ncc(-c4ccccc4F)o3)oc2c1 [VI], the IC50 (α-glucosidase; [3]) is given as 13400 nM.

O=C(C=Cc1ccc(Br)cc1)NNC(=O)C(c1ccccc1)C1CCCC1 (centres unmarked) [Compound 6d, 3-(4-Bromophenyl)-N′-(2-cyclopentyl-2-phenylacetyl)acrylohydrazide] showed an IC50 [1] of 64.8 nM.

In the case of O=C(C=Cc1cccc([N+](=O)[O-])c1)NNC(=O)C(c1ccccc1)C1CCCC1 (centres unmarked) [Compound 6g, 3-(3-Nitrophenyl)-N′-(2-cyclopentyl-2-phenylacetyl)acrylohydrazide], the IC50 [1] is reported as 28.5 nM.

Compound O=C(C=Cc1cccc([N+](=O)[O-])c1)NNC(=O)C(c1cc(F)c(F)cc1F)C1CCCC1 (centres unmarked) [Compound 7g, 3-(3-Nitrophenyl)-N′-(2-cyclopentyl-2-(2,4,5-trifluorophenyl)acetyl)acrylohydrazide] has an IC50 [1] of 54.8 nM.

In the case of CC(C(=O)NN)c1ccc(-c2ccccc2)c(F)c1 (centres unmarked) [III], the IC50 (α-glucosidase; [4]) is given as 25200 nM.

Cc1ccc(C=CC(=O)NNC(=O)C(c2cc(F)c(F)cc2F)C2CCCC2)cc1 (centres unmarked) [Compound 7b, N′-(2-Cyclopentyl-2-(2,4,5-trifluorophenyl)acetyl)-3-(p-tolyl)acrylohydrazide] gave an IC50 [1, 2] of 14.5 nM.

With O=C(/C=C/c1ccc(F)cc1)NNC(=O)C(c1ccccc1)C1CCCC1 (centres unmarked) [Compound 6f, 3-(4-Fluoro)-N′-(2-cyclopentyl-2-phenylacetyl)acrylohydrazide] the “IC50 (α-glucosidase inhibition)” value [1, 5] was “no inhibition effect”.

With COc1ccc(C=CC(=O)NNC(=O)C(c2cc(F)c(F)cc2F)C2CCCC2)cc1 (centres unmarked) [Compound 7e, N′-(2-Cyclopentyl-2-(2,4,5-trifluorophenyl)acetyl)-3-(4-methoxyphenyl)acrylohydrazide] the “IC50 (α-glucosidase inhibition)” value [1, 5] was “no effect on inhibition”.

In the case of O=C(C=Cc1cccc(Br)c1)NNC(=O)C(c1cc(F)c(F)cc1F)C1CCCC1 (centres unmarked) [Compound 7f, 3-(3-Bromophenyl)-N′-(2-cyclopentyl-2-(2,4,5-trifluorophenyl)acetyl)acrylohydrazide], the IC50 [1] is reported as 33.2 nM.

For CC(C(=O)NNC(=O)c1cccc(Cl)c1)c1ccc(-c2ccccc2)c(F)c1 (centres unmarked) [IV], the IC50 (α-glucosidase; [4]) is listed as 10400 nM.

With Cc1ccc(C=CC(=O)NNC(=O)C(c2ccccc2)C2CCCC2)cc1 (centres unmarked) [Compound 6e, N′-(2-Cyclopentyl-2-phenylacetyl)-3-(p-tolyl)acrylohydrazide] the IC50 [1] was 233 nM and the “IC50 (α-glucosidase inhibition)” value [1, 5] was “moderate inhibition”.

O=C(C=Cc1cccc(Cl)c1)NNC(=O)C(c1cc(F)c(F)cc1F)C1CCCC1 (centres unmarked) [Compound 7d, 3-(3-Chlorophenyl)-N′-(2-cyclopentyl-2-(2,4,5-trifluorophenyl)acetyl)acrylohydrazide] showed an IC50 [1, 2] of 18.9 nM.

For O=C(C=Cc1cccc(Br)c1)NNC(=O)C(c1ccccc1)C1CCCC1 (centres unmarked) [Compound 6c, 3-(3-Bromophenyl)-N′-(2-cyclopentyl-2-phenylacetyl)acrylohydrazide], the IC50 [1] was 46.8 nM.

Work on O=C(C=Cc1ccccc1)NNC(=O)C(c1cc(F)c(F)cc1F)C1CCCC1 (centres unmarked) [Compound 7a, N′-(2-cyclopentyl-2-(2,4,5-trifluorophenyl)acetyl)cinnamohydrazide] yielded an IC50 [1] of 85.2 nM.

With O=C(C=Cc1ccccc1Br)NNC(=O)C(c1ccccc1)C1CCCC1 (centres unmarked) [Compound 6b, 3-(2-Bromophenyl)-N′-(2-cyclopentyl-2-phenylacetyl)acrylohydrazide] the IC50 [1] was 104 nM and the “IC50 (α-glucosidase inhibition)” value [1, 5] was “moderate inhibition”.

In the case of O=C(/C=C/c1ccc(O)cc1)N1CC(O)C(O)C1 (centres unmarked) [II], the IC50 (α-glucosidase; deacetylsarmentamide derivative) is listed as 546000 nM.

In the case of Fc1ccccc1/C=N/c1ccc2cn[nH]c2c1 [V], the IC50 (α-glucosidase; [3]) is listed as 8510 nM.

O=C(C=Cc1ccccc1)NNC(=O)C(c1ccccc1)C1CCCC1 (centres unmarked) [Compound 6a, N′-(2-Cyclopentyl-2-phenylacetyl)cinnamohydrazide] gave an IC50 [1] of 79.8 nM.
